# Assay results from ChEMBL document CHEMBL3407397, “Effect of size and N-terminal residue characteristics on bacterial cell penetration and antibacterial activity of the proline-rich peptide Bac7” (J Med Chem, 2015).
# Calls of active or inactive are those of the source. The calls are words filed in the database; no cut-off is given here. Non-standard residues stand in square brackets, D forms with d. Residues, ends and D or L forms follow the SMILES beside them. *: point of attachment. X1 = F[B-]1(F)n2c(ccc2*)C=C2C=CC=[N+]21; Cit = NC(=O)NCCC[C@H](N)C(=O)O
# Columns and labels:
# Escherichia coli [1] = assay: Antimicrobial activity against O-antigen lacking LPS containing wild type Escherichia coli BW25113 incubated for 18 hrs at 37 degC by broth microdilution method; format: functional; conditions: BW25113, 18 h
# Escherichia coli [2] = assay: Antimicrobial activity against delta-waaG deletion mutant containing Escherichia coli BW25113 incubated for 18 hrs at 37 degC by broth microdilution method; format: functional; conditions: BW25113, 18 h
# Escherichia coli [3] = assay: Bactericidal activity against delta-waaG deletion mutant containing wild type Escherichia coli BW25113 assessed as bacterial killing at 4 uM incubated for 3.5 hrs; format: functional, organism-based
# Escherichia coli [4] = assay: Antimicrobial activity against Escherichia coli HB101 incubated for 18 hrs at 37 degC by broth microdilution method; format: functional; conditions: HB101, 18 h
# Escherichia coli [5] = assay: Bactericidal activity against O-antigen lacking LPS containing wild type Escherichia coli BW25113 assessed as bacterial killing at 4 uM incubated for 3.5 hrs; format: functional, organism-based
# Escherichia coli [6] = assay: Antimicrobial activity against Escherichia coli ATCC 25922 incubated for 18 hrs at 37 degC by broth microdilution method; format: functional; conditions: ATCC 25922, 18 h
# Escherichia coli [7] = assay: Drug uptake in O-antigen lacking LPS containing wild type Escherichia coli BW25113 up to 32 uM incubated for 60 mins by propidium iodide staining based cytofluorimetric method; format: ADME, organism-based; conditions: in vivo, 1 h
# Escherichia coli [8] = assay: Antimicrobial activity against delta-sbmA deletion mutant containing Escherichia coli BW25113 incubated for 18 hrs at 37 degC by broth microdilution method; format: functional; conditions: BW25113, 18 h
# Escherichia coli [9] = assay: Drug uptake in O-antigen lacking LPS containing wild type Escherichia coli BW25113 at 1 uM up to 3.5 hrs in presence of trypan blue quencher; format: ADME, organism-based; conditions: in vivo
# Escherichia coli [10] = assay: Drug uptake in delta-waaG deletion mutant containing Escherichia coli BW25113 at 4 uM up to 3.5 hrs in presence of trypan blue quencher; format: ADME, organism-based; conditions: in vivo
# Escherichia coli [11] = assay: Drug uptake in Escherichia coli ATCC 25922 assessed as mean fluorescence intensity using BODIPY-labeled compound at 0.25 to 4 uM incubated for 10 mins by flow cytometry; format: ADME, organism-based; conditions: in vivo
# Escherichia coli [12] = assay: Drug uptake in Escherichia coli ATCC 25922 assessed as mean fluorescence intensity using BODIPY-labeled compound at 0.25 uM incubated for 10 mins by confocal microscopy; format: ADME, organism-based; conditions: in vivo
# Escherichia coli [13] = assay: Drug uptake in Escherichia coli ATCC 25922 assessed as mean fluorescence intensity using BODIPY-labeled compound at 0.25 to 4 uM incubated for 10 mins in presence of trypan blue quencher by flow cytometry; format: ADME, organism-based; conditions: in vivo
# Escherichia coli [14] = assay: Drug uptake in Escherichia coli ATCC 25922 assessed as mean fluorescence intensity using BODIPY-labeled compound at 0.25 to 4 uM incubated for 60 mins in presence of trypan blue quencher by flow cytometry; format: ADME, organism-based; conditions: in vivo, 1 h
# Escherichia coli [15] = assay: Drug uptake in Escherichia coli ATCC 25922 assessed as mean fluorescence intensity using BODIPY-labeled compound at 0.25 to 4 uM incubated for 60 mins by flow cytometry; format: ADME, organism-based; conditions: in vivo, 1 h
# Escherichia coli [16] = assay: Bacteriostatic activity against O-antigen lacking LPS containing wild type Escherichia coli BW25113 at 4 uM incubated for 3.5 hrs; format: functional, organism-based
# Escherichia coli [17] = assay: Bacteriostatic activity against delta-waaG deletion mutant containing wild type Escherichia coli BW25113 at 4 uM incubated for 3.5 hrs; format: functional, organism-based
Structure (SMILES),MIC (Escherichia coli [1]),MIC (Escherichia coli [2]),Activity (Escherichia coli [3]),MIC (Escherichia coli [4]),Activity (Escherichia coli [5]),MIC (Escherichia coli [6]),Drug uptake (Escherichia coli [7]),MIC (Escherichia coli [8]),Drug uptake (Escherichia coli [9]),Drug uptake (Escherichia coli [10]),Drug uptake (Escherichia coli [11]),Drug uptake (Escherichia coli [12]),Drug uptake (Escherichia coli [13]),Drug uptake (Escherichia coli [14]),Drug uptake (Escherichia coli [15]),Activity (Escherichia coli [16]),Activity (Escherichia coli [17])
CC[C@H](C)[C@H](NC(=O)[C@H](CCCNC(=N)N)NC(=O)[C@@H](N)CCCNC(=N)N)C(=O)N[C@@H](CCCNC(=N)N)C(=O)N1CCC[C@H]1C(=O)N[C@@H](CCCNC(=N)N)C(=O)N1CCC[C@H]1C(=O)N1CCC[C@H]1C(=O)N[C@@H](CCCNC(=N)N)C(=O)N[C@@H](CC(C)C)C(=O)N1CCC[C@H]1C(=O)N[C@@H](CCCNC(=N)N)C(=O)N1CCC[C@H]1C(=O)N[C@@H](CCCNC(=N)N)C(=O)N1CCC[C@H]1C(=O)N[C@@H](CCCNC(=N)N)C(=O)N1CCC[C@H]1C(=O)N[C@@H](CC(C)C)C(=O)N1CCC[C@H]1C(=O)N[C@@H](Cc1ccc(O)cc1)C(=O)N1CCC[C@H]1C(=O)N[C@@H](CCCNC(=N)N)C(=O)N1CCC[C@H]1C(=O)O,1 µM,0.5 µM,Active,0.5 µM,Active,0.5 µM,Not Active,8 µM,,,,,,,,,
CC[C@H](C)[C@H](N)C(=O)N[C@@H](CCCNC(=N)N)C(=O)N1CCC[C@H]1C(=O)N[C@@H](CCCNC(=N)N)C(=O)N1CCC[C@H]1C(=O)N1CCC[C@H]1C(=O)N[C@@H](CCCNC(=N)N)C(=O)N[C@@H](CC(C)C)C(=O)N1CCC[C@H]1C(=O)N[C@@H](CCCNC(=N)N)C(=O)N1CCC[C@H]1C(=O)N[C@@H](CCCNC(=N)N)C(=O)N1CCC[C@H]1C(=O)N[C@@H](CCCNC(=N)N)C(=O)N1CCC[C@H]1C(=O)N[C@@H](CC(C)C)C(=O)N1CCC[C@H]1C(=O)N[C@@H](Cc1ccc(O)cc1)C(=O)N1CCC[C@H]1C(=O)N[C@@H](CCCNC(=N)N)C(=O)N1CCC[C@H]1C(=O)N[C@@H](CSc1ccc2n1[B-](F)(F)[N+]1=CC=CC1=C2)C(=O)O (H-IRPRPPRLPRPRPRPLPYPRPC(X1)-OH),,,,,,,,,Active,Active,,,,,,,
CC[C@H](C)[C@H](NC(=O)[C@H](CCCNC(=N)N)NC(=O)[C@@H](N)CCCNC(=N)N)C(=O)N[C@@H](CCCNC(=N)N)C(=O)N1CCC[C@H]1C(=O)N[C@@H](CCCNC(=N)N)C(=O)N1CCC[C@H]1C(=O)N1CCC[C@H]1C(=O)N[C@@H](CCCNC(=N)N)C(=O)N[C@@H](CC(C)C)C(=O)N1CCC[C@H]1C(=O)N[C@@H](CCCNC(=N)N)C(=O)N1CCC[C@H]1C(=O)N[C@@H](CSc1ccc2n1[B-](F)(F)[N+]1=CC=CC1=C2)C(=O)O (H-RRIRPRPPRLPRPC(X1)-OH),,,,8 µM,,16 µM,,,,,Not Active,Active,Not Active,Not Active,Not Active,,
CC[C@H](C)[C@H](NC(=O)[C@H](CCCNC(=N)N)NC(=O)[C@@H](N)CCCNC(=N)N)C(=O)N[C@@H](CCCNC(=N)N)C(=O)N1CCC[C@H]1C(=O)N[C@@H](CCCNC(=N)N)C(=O)N1CCC[C@H]1C(=O)N1CCC[C@H]1C(=O)N[C@@H](CCCNC(=N)N)C(=O)N[C@@H](CC(C)C)C(=O)N1CCC[C@H]1C(=O)N[C@@H](CCCNC(=N)N)C(=O)N1CCC[C@H]1C(=O)N[C@@H](CCCNC(=N)N)C(=O)N1CCC[C@H]1C(=O)N[C@@H](CCCNC(=N)N)C(=O)N1CCC[C@H]1C(=O)N[C@@H](CC(C)C)C(=O)N1CCC[C@H]1C(=O)N[C@@H](Cc1ccccc1)C(=O)N1CCC[C@H]1C(=O)N[C@@H](CCCNC(=N)N)C(=O)N1CCC[C@H]1C(=O)NCC(=O)N1CCC[C@H]1C(=O)N[C@@H](CCCNC(=N)N)C(=O)N1CCC[C@H]1C(=O)N[C@H](C(=O)N1CCC[C@H]1C(=O)N[C@@H](CCCNC(=N)N)C(=O)N1CCC[C@H]1C(=O)N[C@@H](CC(C)C)C(=O)N1CCC[C@H]1C(=O)N[C@@H](Cc1ccccc1)C(=O)N1CCC[C@H]1C(=O)N[C@@H](CSc1ccc2n1[B-](F)(F)[N+]1=CC=CC1=C2)C(=O)O)[C@@H](C)CC (H-RRIRPRPPRLPRPRPRPLPFPRPGPRPIPRPLPFPC(X1)-OH),,,,,,,,,,,Active,Active,Active,Active,Active,,
CC[C@H](C)[C@H](NC(=O)[C@H](CCCNC(N)=O)NC(=O)[C@@H](N)CCCNC(N)=O)C(=O)N[C@@H](CCCNC(=N)N)C(=O)N1CCC[C@H]1C(=O)N[C@@H](CCCNC(=N)N)C(=O)N1CCC[C@H]1C(=O)N1CCC[C@H]1C(=O)N[C@@H](CCCNC(=N)N)C(=O)N[C@@H](CC(C)C)C(=O)N1CCC[C@H]1C(=O)N[C@@H](CCCNC(=N)N)C(=O)N1CCC[C@H]1C(=O)N[C@@H](CCCNC(=N)N)C(=O)N1CCC[C@H]1C(=O)N[C@@H](CCCNC(=N)N)C(=O)N1CCC[C@H]1C(=O)N[C@@H](CC(C)C)C(=O)N1CCC[C@H]1C(=O)N[C@@H](Cc1ccc(O)cc1)C(=O)N1CCC[C@H]1C(=O)N[C@@H](CCCNC(=N)N)C(=O)N1CCC[C@H]1C(=O)O (H-[Cit][Cit]IRPRPPRLPRPRPRPLPYPRP-OH),32 µM,8 µM,,,,32 µM,,> 64 µM,Active,Active,,,,,,Active,Active
